Results as given in article PMC11744668, “2-Cyanopyrimidine-Containing Molecules for N-Terminal Selective Cyclization of Phage-Displayed Peptides” (ACS Chemical Biology, 2025).
Entries after “also recorded” stand apart in the source; their conditions may differ. Starred links: 1 amine or outer side, 2 acyl side, 3 side chain; linkers in the order of their positions; H or OH if unused. Positions of bridges follow the written chain, without caps; N, C: chain ends. Non-standard residues stand in square brackets, D forms with d. Residues, ends and D or L forms follow the SMILES beside them. No end group written: not given here. X1 = O=C([C@@H]1CSC(c2ncc(N[*:1])cn2)=N1)[*:2]; X2 = O=C([C@@H]1CSC(c2nccc(N[*:1])n2)=N1)[*:2]; Abu = CC[C@H](N)C(=O)O

Assays:
[1] = target: T1, ZNRF3 extracellular domain (ZNRF3-ECD) (Homo sapiens, UniProt Q9ULT6); assay: Phage selection against ZNRF3-ECD, NGS enrichment, pCAmCP-cyclized library; type: binding
T1 construct: The ZNRF3 ECD was expressed and characterized exactly as previously described; SUMO (N, cleaved yes); made in house; host or cells: E. coli BL21, co-expressing BirA
T1 sequence (Q9ULT6 56-219 limits assumed): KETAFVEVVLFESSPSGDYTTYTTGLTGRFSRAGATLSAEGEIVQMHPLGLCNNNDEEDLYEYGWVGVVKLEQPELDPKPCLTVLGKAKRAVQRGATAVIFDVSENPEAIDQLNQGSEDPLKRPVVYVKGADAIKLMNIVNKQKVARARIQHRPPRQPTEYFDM
Description: (§1) In addition to simply ensuring the cyclization potential on phage, we also looked to investigate the selection differences using two different linkers to macrocyclize the same initial peptide library. ZNRF3 is a membrane protein that contains an intracellular E3 ligase domain and has previously shown potential in promoting degradation of oncogenic membrane proteins, such as PDL1.[32] ZNRF3 also plays a major role in the regulation of the Wnt signaling cascade, which can modulate a variety of cell processes related to oncogenesis and cell differentiation.[33]−[36] […] Because it has an extracellular domain that can be easily accessible to macrocyclic peptides, we envisioned that a selection against the extracellular domain for ZNRF3 (ZNRF3-ECD) would afford peptides that could potentially be used in the development of proteolysis-targeting chimeras (PROTACs) for a variety of membrane proteins. We expressed and characterized a biotinylated ZNRF3-ECD using an Avi-Tag on the […] to facilitate the selection using streptavidin magnetic beads, as has been previously described (Figure S20).[38] […] To avoid the potential for enriching peptides that bind to the streptavidin resin, we alternated loading the protein using streptavidin and NHS-functionalized magnetic beads for the first three rounds of selection (Figure 5).
(§2) The purified phage library (10^11 to 10^12 cfu) in binding buffer was incubated with 1 mM TCEP at 37 °C. After 30 min, the linker (pCAmCP or mCAmCP, 10 mM in DMSO) was added to a final concentration of 100 μM. The solution was incubated for 24 h at RT with slow rotation. The library was then directly used for affinity selection without further purification.
(§3) Streptavidin-coated magnetic beads (100 μL, 50% slurry, Cytiva Sera-Mag) were transferred to a 1.5 mL tube, washed three times with 1 mL of binding buffer (10 mM HEPES, 150 mM NaCl, 10 mM MgCl2, and 1 mM KCl, pH 7.4), resuspended in 100 μL of binding buffer, and split into two tubes. […]

[2] = target: T1, ZNRF3 extracellular domain (ZNRF3-ECD); assay: Biolayer interferometry (BLI) binding to immobilized biotinylated ZNRF3-ECD
Method: The ZNRF3 ECD was expressed and characterized exactly as previously described.[38] Plasmid pET28a-SUMO-ZNRF3-Avi was cotransformed into E. coli (BL21) along with a plasmid expressing BirA. The cells were then inoculated into 2× YT containing 50 μg/mL kanamycin and 34 μg/mL chloramphenicol and grown at 37 °C until OD = 0.5. Expression was then induced by the addition of 1 mM IPTG and 50 μM biotin, and then the protein was expressed for 18 h at 16 °C. The cells were then pelleted (3750g, 15 min) and then resuspended in buffer A (50 mM Tris-HCl, 10% glycerol, 150 mM NaCl, and 25 mM imidazole, pH 7.5, 20 mL/liter of expression). The cells were then lysed by sonication (1 s on, 1 s off, 5 min, 60% A, repeated once), and the lysate was clarified by centrifugation (25,000g, 20 min). The supernatant was then incubated with a Ni-NTA column for 45 min at 4 °C. The column was then washed with 5 CV of buffer A before being eluted using 2 CV of buffer B (buffer A + 240 mM imidazole). The elution was then concentrated using an Amicon centrifugal filter before being desalted into buffer A on a HiPrep 26/10 column. The SUMO tag was then cleaved by the addition of 30 μg/mL SUMO protease and incubation for 48 h at 4 °C. The protein was then loaded onto a second Ni-NTA column for 45 min at 4 °C, and the flowthrough was collected and concentrated to 1 mL by centrifugation. Pure protein was then isolated using size exclusion chromatography (HiLoad 16/600, Superdex 75 pg) in buffer C (50 mM Tris-HCl, pH 7.5, 10% (v/v) glycerol, 150 mM NaCl, and 0.5 mM EDTA). Pure protein was stored in storage buffer (50 mM Tris-HCl, pH 7.5, 50% (v/v) glycerol, and 150 mM NaCl) at −80 °C before being used for assays.
Biolayer interferometry (BLI) experiments were performed using streptavidin-coated biosensors (Sartorius Bio) on an Octet R8 biolayer interferometer (Sartorius Bio). All experiments were performed in assay buffer (10 mM HEPES, 150 mM NaCl, and 0.01% Tween 20, pH 7.5). Biotinylated ZNRF3 (28 μg/mL in assay buffer) was loaded onto the sensor to 4 nm of loading over 10 min, and then the sensors were quenched for one min with a 1% BSA solution in assay buffer. Peptides were serially diluted in assay buffer containing 0.8% DMF, and the association and dissociation to ZNRF3 were measured over 3 and 5 min, respectively. Between each experiment, sensors were regenerated using 10 mM glycine, pH 1.5. Binding curves were double-referenced against a protein-only sensor and a parallel unloaded sensor to correct for any nonspecific binding to the sensors. All curves were fit in the Octet Kinetic Analysis program (Sartorius Bio) using a 1:1 protein/ligand binding model.

[3] = target: T1, ZNRF3 extracellular domain (ZNRF3-ECD); assay: Phage selection against ZNRF3-ECD, NGS enrichment, mCAmCP-cyclized library; type: binding
Description: as §1, §2, §3

[4] = Solubility observation for synthesized peptides; type: physicochemical; settings: observed at synthesis / BLI testing
[5] = Chloroacetamide addition kinetics with N-terminal Abu peptide CGK-5Abu; settings: 500 μM peptide; CGK-5Abu vs CGK-5
Description: While pCAmCP and mCAmCP gave efficient cyclization of the peptide fusion of sfGFP, we looked to further investigate the specificity of the reaction using peptide kinetic assays. To do this, we first established reactivity of the compounds with a model peptide (CGK-5, Figures 3A and S16) that was composed of two cysteines flanking a region tuned for solubility in buffer (GGKGG) and with a tryptophan residue on the C-terminus for UV absorbance. […] To test the specificity of the reaction for the N-terminal cysteine, we synthesized a peptide analogue (CGK-5Abu, Figures 3D–F and S17) that contained 2-aminobutyric acid in place of the N-terminal cysteine. […] Since these reactions occurred at 500 μM of peptide to allow for analysis on the HPLC, we envision this difference will likely be exaggerated when using lower peptide/protein concentrations. Although it is unlikely at neutral pH, the chloroacetamide moiety can possibly react with nucleophilic amino acids other than cysteine. […]
The peptide (CGK-5 or CGK-5Abu, 5 mM stock in water) was diluted to 500 μM in ammonium bicarbonate buffer (50 mM, pH 7.5) containing 1.2 mM TCEP. […] Following dilution with 20 μL of water, the sample was then analyzed on a Shimadzu HPLC with an LCMS-2020 mass spectrometer attached (10–40% ACN gradient in H2O over 6 min, 0.1% formic acid, 1 mL/min flow rate, Shimadzu C18 250 × 4.6 mm, 5 μm). […]

[6] = target: T2, ZNRF3 extracellular domain (biotinylated) (UniProt Q9ULT6 56-219, biotin (on the Avi-Tag; co-expression with BirA and 50 uM biotin)); assay: BLI; biotinylated ZNRF3-ECD loaded on streptavidin biosensors (Octet R8); peptides serially diluted in 10 mM HEPES, 150 mM NaCl, 0.01% Tween 20, pH 7.5 with 0.8% DMF; association 3 min, dissociation 5 min; double-referenced; 1:1 binding model; settings: both partners purified
T2 construct: ZNRF3, extracellular domain; also called ZNRF3-ECD; ZNRF3 ECD; source: E. coli (BL21), co-expressed with BirA, purified (Ni-NTA, SUMO protease, second Ni-NTA, SEC Superdex 75); not shown: Avi-Tag, N-terminal, kept
T2 sequence (looked up): T1 sequence (Q9ULT6 56-219 limits assumed)

Molecule: CC(C)C[C@@H]1NC(=O)[C@H](CCCCN)NC(=O)[C@H](CCC(N)=O)NC(=O)[C@H](CCCNC(=N)N)NC(=O)[C@H](Cc2c[nH]c3ccccc23)NC(=O)[C@H](C)NC(=O)[C@H](CCC(=O)O)NC(=O)[C@H](CC(C)C)NC(=O)[C@@H]2CCCN2C(=O)[C@H](CO)NC(=O)[C@H](CC(C)C)NC(=O)[C@H](Cc2c[nH]cn2)NC(=O)[C@@H]2CSC(=N2)c2ncc(cn2)NC(=O)CSC[C@@H](C(N)=O)NC1=O [Peptide Z27S1] ({CH2CO}-[X1]HLSPLEAWRQKLC-NH2; thioether N-14)
- fold increase in abundance after round 2 ([1]; enrichment after round 2): > 16,000 -fold
- presence in round 1 sequencing data (in words) ([1]; round 1): not found in the round 1 sequencing data
- share of total sequences in round 4 ([1]; round 4, 69,462 total sequences): 67%
- binding to ZNRF3 (in words) ([2]; 10 mM HEPES, 150 mM NaCl, 0.01% Tween 20, pH 7.5, 0.8% DMF): nanomolar affinity to ZNRF3
- Kd ([2]; streptavidin biosensors, pH 7.5, 1:1 binding model, value as given in abstract): 360 nM

Molecule: CSCC[C@@H]1NC(=O)[C@H](CC(C)C)NC(=O)[C@H](CC(N)=O)NC(=O)[C@H](CCC(=O)O)NC(=O)[C@H](Cc2c[nH]c3ccccc23)NC(=O)[C@H](CC(N)=O)NC(=O)[C@H](CC(C)C)NC(=O)[C@H](CCCNC(=N)N)NC(=O)[C@H](CC(C)C)NC(=O)[C@H](Cc2ccccc2)NC(=O)[C@@H]2CSC(=N2)c2nccc(n2)NC(=O)CSC[C@@H](C(N)=O)NC(=O)[C@H](Cc2c[nH]c3ccccc23)NC(=O)[C@@H]2CCCN2C1=O [Peptide Z28S1] ({CH2CO}-[X2]FLRLNWENLMPWC-NH2; thioether N-14; C-terminus assumed)
- off rates (in words) ([2]; pH 7.5, dissociation over 5 min): high off rates; also recorded: extremely quick off rates
- fold enrichment after round 1 ([3]; after round 1): over 32,000 -fold
- share of total sequences after round 4 ([3]; round 4, 84,190 total sequences): 81%

Molecule: CELVMMHGYWWRQC (also: sidechain bridge or staple (positions not given here)) [Peptide Z28S2, peptide enriched in the mCAmCP selection]
- solubility (in words) [4]: poor solubility during synthesis
- fold increase in abundance after round 2 ([3]; after round 2): ~5000 -fold

Molecule: [Abu]GGKGGCGW [CGK-5Abu, peptide analogue with 2-aminobutyric acid in place of the N-terminal cysteine]
- rate of reaction relative to the cyclization reaction, fold slower [5]: ~3 -fold slower

Molecule: [Abu]HLSPLEAWRQKL[Abu] [Z27S1Abu (linear analogue of Z27S1)]
- Kd [6]: 2600 nM
